Data on four molecules can be found in US8431703B2, “Pyrrolopyridine compounds and their use in treating disease” (Novartis AG, priority 2005, dated 2013).

In general, pIC50 refers to the negative decadic logarithm of the IC50, by convention in mol/L. A high value points to a small IC50. Usually pKi stands for −log10 of the Ki, conventionally taken in molar units. Read a low pKi as a large Ki.

pIC50, pKi: −log10 of the molar value.

The target in test [1] is T1, human CRTh2 (Homo sapiens, UniProt Q9Y5Y4).
T1 sequence (Q9Y5Y4 1-395): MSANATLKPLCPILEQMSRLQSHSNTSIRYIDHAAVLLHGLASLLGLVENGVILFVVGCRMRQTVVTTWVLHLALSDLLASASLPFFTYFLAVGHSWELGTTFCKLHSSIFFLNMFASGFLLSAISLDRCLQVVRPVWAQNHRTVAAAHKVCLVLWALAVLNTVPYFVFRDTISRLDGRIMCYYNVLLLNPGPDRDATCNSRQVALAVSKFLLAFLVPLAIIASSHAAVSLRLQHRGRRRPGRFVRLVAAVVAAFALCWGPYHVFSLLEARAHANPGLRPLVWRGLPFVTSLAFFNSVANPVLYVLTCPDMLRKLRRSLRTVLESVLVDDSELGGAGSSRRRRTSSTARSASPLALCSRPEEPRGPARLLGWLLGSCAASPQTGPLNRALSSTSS
In words: CRTH2 cAMP functional assay in CHO.K1-CRTh2 cells. The format is cell-based. As to conditions: inhibition of PGD2-mediated attenuation of forskolin-induced cAMP accumulation. Also noted: expressed in transfected cells; host or cells: CHO.K1-CRTh2 cells. The method, then: This assay is conducted in CHO.K1-CRTh2 cells. cAMP is generated in the cell by stimulating cells with 5 μM forskolin, an adenylate cyclase activator. PGD2 is added to activate the CRTh2 receptor which results in the attenuation of the forskolin-induced cAMP accumulation. Potential CRTh2 antagonists are tested for their ability to inhibit the PGD2-mediated attenuation of the forskolin-induced cAMP accumulation in CHO.K1-CRTh2 cells.
For each concentration value on the dose-response curve, test compounds are prepared in assay stimulation buffer (HBSS, 5 mM HEPES, 10 μM IBMX±0.1% human serum albumin) containing DMSO (3% vol/vol) and 5 μL/well is added to an assay plate (384 well white optiplate).
CHO.K1-CRTh2 cultured in tissue culture flasks are washed with PBS and harvested with dissociation buffer. Cells are washed with PBS and resuspended in stimulation buffer to a concentration of 0.4×10^6/mL and added to the assay plate (10 μL/well).
The assay plate is incubated at room temperature on a shaker for 15 minutes.
A mix of agonist (10 nM Prostaglandin D2) and 5 μM forskolin is prepared in assay stimulation buffer and added to the assay plate (5 μL/well).
In addition, a cAMP standard is serially diluted in assay stimulation buffer and added to separate empty wells on the assay plate (20 μL/well). The cAMP standard allows for the quantification of cAMP generated in CHO.K1-CRTH2 cells.
The assay plate is incubated at room temperature on a shaker for 60 minutes.
Cell lysis buffer (Lysis buffer: Milli-Q H20, 5 mM HEPES, 0.3% Tween-20, 0.1% human serum albumin) is added to a bead mix (containing Alphascreen™ anti-cAMP acceptor beads 0.06 units/IL, Alphascreen™ streptavidin-coated donor beads 0.06 units/μL, biotinylated cAMP 0.06 units/μL, 10 μM IBMX) is prepared under darkened conditions 60 minutes prior to addition to the assay plate. The resulting lysis mix is added to all wells of the assay plate (40 μL/well).
The assay plate is sealed with Topseal-S™ and incubated in the dark at room temperature on a shaker for 45 minutes. The plate is then counted using a Packard Fusion™ instrument.
The resulting counts per minute are converted to nM cAMP by using the prepared cAMP standard curve. IC50 values (concentration of CRTh2 antagonist required to inhibit 50% of the PGD2-mediated attenuation of forskolin-induced cAMP accumulation in CHO.K1-CRTh2 cells) are then determined using Prism™ software.
For orientation: Cyclic AMP is a second messenger, typically raised through Gs and lowered through Gi signalling.

The target in test [2] is T1, human CRTh2. In words: CRTh2 [3H]-PGD2 binding assay (filtration binding protocol; called SPA binding assay). Set-up: expressed in transfected cells; host or cells: CHO.K1 (Chinese Hamster Ovary) cells, membrane preparation. As to conditions: competition with [3H]-PGD2 2.5 nM, CHO.K1-CRTh2 membranes. The method, then:
The binding of CRTh2 modulators is determined using membranes prepared from human CRTh2-expressing Chinese Hamster Ovary cells (CHO.K1-CRTh2). To produce cell membranes CHO.K1-CRTh2 cells cultured in roller bottles are harvested using cell dissociation buffer (Invitrogen). The cells are pelleted by centrifugation (167 g, 5 min). The cell pellet is incubated in hypotonic buffer (15 mM Tris-OH, 2 mM MgCl2, 0.3 mM EDTA, 1 mM EGTA, 1× Complete™ tablet) at 4° C. for 30 min. At 4° C. cells are homogenized using a Polytron® (IKA Ultra Turrax T25) for 5 bursts of 1 second. The homogenate is centrifuged (Beckman Optima™ TL Ultracentrifuge, 48000 g, 30 min at 4° C.). The supernatant is discarded and the membrane pellet resuspended in homogenisation buffer (75 mM Tris-OH, 12.5 mM MgCl2, 0.3 mM EDTA, 1 mM EGTA, 250 mM Sucrose, 1× Complete™ tablet. Membrane preparations are aliquoted and stored at […]. The protein content is estimated using Bradford Protein Assay Dye (Bio Rad).
The binding of [^3H]-PGD2 (157 Ci/mmol) to CHO.K1-CRTh2 membranes is determined in the absence (total binding) and presence (non-specific binding) of unlabelled PGD2 (1 μM). Subtraction of the cpm (counts per minute) of [^3H]-PGD2 binding in presence of excess unlabelled PGD2 from that observed in the absence of excess unlabelled PGD2 is defined as specific binding. Active CRTh2 modulators are able to compete with [^3H]-PGD2 for binding to the CRTh2 receptor and are identified in a decrease in the number of cpm bound.
The assay is performed in Greiner U-bottomed 96 well-plates, in a final volume of 100 μl per well. CHO.K1-CRTh2 membranes were diluted in assay buffer (10 mM HEPES-KOH (pH 7.4), 1 mM EDTA and 10 mM MnCl2) and 10 μg are added to each well. [^3H]-PGD2 is diluted in assay buffer and added to each well at a final concentration of 2.5 nM. To determine non-specific binding, [^3H]-PGD2 binding to the CRTh2 receptor is competed with using unlabelled PGD2 at a final well concentration of 1 μM. The experiment is done in triplicate, with reagents added to the wells as follows: • 25 μL assay buffer for total binding or • 25 μL PGD2 to determine non-specific binding • 25 μL [^3H]PGD2 • 50 μL membranes • 25 μL test compound in DMSO/assay buffer
The plates are incubated at room temperature on a shaker for 1 hour, and then harvested (Tomtec Harvester 9600) onto GF/C filter plates using wash buffer (10 mM HEPES-KOH, pH 7.4). […] Plates are then counted using a Packard Top Count instrument, Plates are then read on the Packard Topcount with the 3H Scintillation program (1 min per well). • Ki (dissocation constant for the inhibition) values for the CRTh2 modulators are reported. Ki values are determined using Sigma Plot™ software, using the Cheng-Prussoff equation. […]

Take `Cc1c(CC(=O)O)c2cccnc2n1Cc1ccc(S(=O)(=O)N2CCOCC2)cc1` [Example 1, {2-methyl-1-[4-(morpholine-4-sulfonyl)-benzyl]-1H-pyrrolo[2,3-b]pyridine-3-yl}acetic acid]: the pIC50 in test [1] was 7.22. The molecule also gave a pKi in test [2] of 7.52.

For the molecule `Cc1c(CC(=O)O)c2cccnc2n1Cc1ccc(S(=O)(=O)N2CCCC2)cc1` [Example 2], the pIC50 in test [1] was 7.08. In addition, the pKi in test [2] is 7.47.

For `Cc1c(CC(=O)O)c2cccnc2n1Cc1ccc(S(=O)(=O)N2CCCCC2)cc1` [Example 4], the pIC50 in test [1] was 7.38. Further, the pKi in test [2] is 6.62.

Turning to `Cc1c(CC(=O)O)c2cccnc2n1Cc1ccc(S(=O)(=O)N(C)C2CCCCC2)cc1` [Example 6, {1-[4-(Cyclohexyl-methyl-sulfamoyl)-benzyl]-2-methyl-1H-pyrrolo[2,3-b]pyridin-3-yl}-acetic acid], the pIC50 in test [1] is 7.74. For the same molecule, in test [2], the pKi was 8.70.
